{"source": "patent US20130064931A1", "about": "“INGREDIENT DELIVERY SYSTEM” (FIRMENICH SA, priority 2010, published 2013)", "key": {"[1]": {"assay": "Photostability of compound 1 under UV (xenon lamp) irradiation, HPLC/UV-DAD measurement", "format": "physicochemical", "settings": "for photodegradation protection of compound 1 (in words): Example 8, anionic and cationic surfactants; for % remaining (compound 1) / HPLC % remaining: 25 ppm compound 1 in water; for % remaining (compound 1): irradiated 120 min; for Time for complete degradation: compound 1 in water, HPLC % remaining reached 0", "experimental": "(§1) The photostability of compound 1 under UV irradiation was studied as follows.\n(§2) The sample to be irradiated was introduced into a transparent glass bottle, placed on a plate and then subjected to irradiation with a xenon lamp (Xenon lamp Suntest XLS+, Atlas Material Testing Technology LLC). The lamp was set to 650 W/m^2, the temperature was kept constant at 45° C. and the plate was turned slowly in order to assure homogeneous UV-exposure of the entire sample. After a fixed interval, the sample was removed and the content of compound 1 remaining was measured by HPLC and Fluorimetry.\nFirstly, a standard solution containing 26.44 mg caffeine in 11 LC-MS grade methanol was prepared. For samples containing 10 ppm of compound 1, the sample was placed in a vial, diluted to 500 μl and 50 μl of the standard solution was added; for samples containing 25 ppm of compound 1, the sample was placed in a vial, diluted to 400 μl and 200 μl of the standard solution was added. Each vial was protected from exposure to light by being wrapped in aluminium foil.\nThe relative content of compound 1 in irradiated samples was calculated against the non-irradiated reference (set at 100%) using an Agilent Technologies 1200 series HPLC equipped with a degasser G1379B, a binary pump G1312B (large-volume mixer was by-passed), a well-plate high performance autosampler G1367D, a thermostatted column compartment G1316B and a UV (DAD) detector G1315C. The column (ZORBAX Eclipse Plus C18 600Bar 2.1×100 mm, 1.8 μm (#959764-902) was set at 60° C.±0.1° C. Two solvents were used: Solvent “A” was formic acid 0.1% in water, ULC/MS, Biosolve (ready-mix cat.# 23244102); solvent “B” was formic acid 0.1% in acetonitrile, ULC/MS, Biosolve (ready-mix cat. #01934125). The solvent flow rate was 0.500 ml/min; Injection: 2 μl.\nSolvent gradient: 0 min-1 min: 95% A • 1 min-8 min: 95% A à 100% B • 8 min-10 min: 100% B • 10 min-12 min: 100% B à 95% A • Post-equilibration 1 min\nDetector: UV-DAD: • Caffeine (internal standard): signal 273 nm, Bw 16 • Compound 1: signal 264 nm, Bw 8 • signal 230 nm, Bw 8\nThe signal at 264 nm was used for the quantification calculations."}, "[2]": {"assay": "Photostability of compound 1 under UV (xenon lamp) irradiation, fluorimetry measurement", "format": "physicochemical", "settings": "25 ppm compound 1 in water", "experimental": "as §1, §2\nThe sample to be studied was placed in quartz cell (width lcm). Fluorescence was detected at an angle 90° to the incident exciting beam using a Fluorolog-3 spectrofluorometer (Model FL3-22, Jobin Yvon-Spex Instruments SA, Inc). […] Excitation and emission spectra of each sample were provided.\nFor calibration, the excitation and emission spectra of compound 1 solutions were measured before and after irradiation. The intensity of the emission maximum of the unirradiated solution was given the value as 100%. The ratio between the intensities of emission maxima of irradiated and unirradiated samples was measured and the results calculated as a percentage."}}}
{"compound": "CCCCCCCCCCCCOS(=O)(=O)[O-].[Na+]", "note": "[SDS, Sodium dodecyl sulphate, reference compound]", "values": [{"measurement": "photodegradation protection of compound 1 (in words)", "setting": "[1]", "result": "little or no photodegradation protection"}]}
{"compound": "CCCNC(=O)C(C)(C)COc1cccc2c1C(N)=NS(=O)(=O)N2", "note": "[Compound 1]", "values": [{"measurement": "% remaining (compound 1)", "setting": "[1]; Polysorbate 80 concentration 0.0001572 % w/w", "result": 0, "unit": "%"}, {"measurement": "% remaining (compound 1)", "setting": "[1]; Polysorbate 80 concentration 0.0002145 % w/w", "result": 0, "unit": "%"}, {"measurement": "% remaining (compound 1)", "setting": "[1]; Polysorbate 80 concentration 0.001572 % w/w", "result": 0, "unit": "%"}, {"measurement": "% remaining (compound 1)", "setting": "[1]; Polysorbate 80 concentration 0.008 % w/w", "result": 0, "unit": "%"}, {"measurement": "% remaining (compound 1)", "setting": "[1]; Polysorbate 80 concentration 0.01 % w/w", "result": 0, "unit": "%"}, {"measurement": "% remaining (compound 1)", "setting": "[1]; Polysorbate 80 concentration 0.05 % w/w", "result": 6.55, "unit": "%"}, {"measurement": "% remaining (compound 1)", "setting": "[1]; Polysorbate 80 concentration 0.1 % w/w", "result": 6.81, "unit": "%"}, {"measurement": "% remaining (compound 1)", "setting": "[1]; Polysorbate 80 concentration 0.5 % w/w", "result": 12.97, "unit": "%"}, {"measurement": "% remaining (compound 1)", "setting": "[1]; Polysorbate 80 concentration 1 % w/w", "result": 22.24, "unit": "%"}, {"measurement": "% remaining (compound 1)", "setting": "[1]; Polysorbate 80 concentration 4 % w/w", "result": 47, "unit": "%"}, {"measurement": "% remaining (compound 1)", "setting": "[1]; Polysorbate 80 concentration 8.5 % w/w", "result": 88.57, "unit": "%"}, {"measurement": "% remaining (compound 1)", "setting": "[1]; Polysorbate 80 concentration 15 % w/w", "result": 97.03, "unit": "%"}, {"measurement": "HPLC % remaining", "setting": "[1]; time of irradiation 0 min (non-irradiated reference set at 100%)", "result": 100, "unit": "%"}, {"measurement": "HPLC % remaining", "setting": "[1]; time of irradiation 5 min", "result": 79.7, "unit": "%"}, {"measurement": "HPLC % remaining", "setting": "[1]; time of irradiation 10 min", "result": 62.2, "unit": "%"}, {"measurement": "HPLC % remaining", "setting": "[1]; time of irradiation 20 min", "result": 46.3, "unit": "%"}, {"measurement": "HPLC % remaining", "setting": "[1]; time of irradiation 30 min", "result": 32.3, "unit": "%"}, {"measurement": "HPLC % remaining", "setting": "[1]; time of irradiation 45 min", "result": 24.8, "unit": "%"}, {"measurement": "HPLC % remaining", "setting": "[1]; time of irradiation 60 min", "result": 18.7, "unit": "%"}, {"measurement": "HPLC % remaining", "setting": "[1]; time of irradiation 90 min", "result": 6.9, "unit": "%"}, {"measurement": "HPLC % remaining", "setting": "[1]; time of irradiation 120 min", "result": 0, "unit": "%"}, {"measurement": "HPLC % remaining", "setting": "[1]; time of irradiation 180 min", "result": 0, "unit": "%"}, {"measurement": "Time for complete degradation", "setting": "[1]; initial concentration 5 ppm", "result": 45, "unit": "min"}, {"measurement": "Time for complete degradation", "setting": "[1]; initial concentration 10 ppm", "result": 60, "unit": "min"}, {"measurement": "Time for complete degradation", "setting": "[1]; initial concentration 15 ppm", "result": 90, "unit": "min"}, {"measurement": "Time for complete degradation", "setting": "[1]; initial concentration 25 ppm", "result": 120, "unit": "min"}, {"measurement": "Time for complete degradation", "setting": "[1]; initial concentration 40 ppm", "result": ">180", "unit": "min"}, {"measurement": "Fluorimetry % remaining", "setting": "[2]; time of irradiation 0 min (unirradiated solution given the value 100%)", "result": 100, "unit": "%"}, {"measurement": "Fluorimetry % remaining", "setting": "[2]; time of irradiation 5 min", "result": 91.3, "unit": "%"}, {"measurement": "Fluorimetry % remaining", "setting": "[2]; time of irradiation 10 min", "result": 78.5, "unit": "%"}, {"measurement": "Fluorimetry % remaining", "setting": "[2]; time of irradiation 20 min", "result": 52.2, "unit": "%"}, {"measurement": "Fluorimetry % remaining", "setting": "[2]; time of irradiation 30 min", "result": 38.7, "unit": "%"}, {"measurement": "Fluorimetry % remaining", "setting": "[2]; time of irradiation 45 min", "result": 27.8, "unit": "%"}, {"measurement": "Fluorimetry % remaining", "setting": "[2]; time of irradiation 60 min", "result": 21.3, "unit": "%"}, {"measurement": "Fluorimetry % remaining", "setting": "[2]; time of irradiation 90 min", "result": 16.2, "unit": "%"}, {"measurement": "Fluorimetry % remaining", "setting": "[2]; time of irradiation 120 min", "result": 12.7, "unit": "%"}, {"measurement": "Fluorimetry % remaining", "setting": "[2]; time of irradiation 180 min", "result": 6.4, "unit": "%"}]}
{"compound": "CCCCCCCCCCCCCCCC[N+](C)(C)C.[Br-]", "note": "[CTAB, Cetyl trimethylammonium bromide, reference compound]", "values": [{"measurement": "photodegradation protection of compound 1 (in words)", "setting": "[1]", "result": "little or no photodegradation protection"}]}
